Measured values as given in US20260234150A1, “COMPOUND FOR INHIBITING NLRP3, PREPARATION METHOD, AND USE” (DOVETREE MEDICINES UNUS, INC., priority 2023, published 2026).
Like-named read-outs stand apart in the source and are kept apart here.

How the values were obtained:
Type in all cases: in vitro ADME
CYP3A4 = biological target: T1, CYP3A4 (Homo sapiens, UniProt P08684); assay: CYP450 enzyme inhibition in human liver microsomes, CYP3A4
T1 construct: 0.05 mg/mL liver microsome (BioIVT, IHG) phosphate buffer solution; tissue BioIVT IHG; host or cells: human liver microsomes
Procedure: (§1) This experiment incubates the compound, liver microsomes and different CYP subtype enzyme substrates in a 37° C. water bath to measure the amount of substrate metabolites produced and evaluate the inhibitory effect of the compound of the present disclosure on CYP enzymes based on the IC50 value.
(§2) i. The compound was diluted to 0, 0.02 mM, 0.06 mM, 0.2 mM, 0.6 mM, 2 mM and 6 mM concentrations with DMSO (Aladdin, catalog number: D103273-500 ml).
(§3) ii. The enzyme substrate solutions of each CYP subtype were prepared by phosphate buffer (sigma: V900050-500G).
(§4) iii. Sample incubation. […] After centrifugation at 4000 rpm and 4° C. for 40 min, the supernatant was diluted with pure water according to the response of the substrate metabolites and then detected by UPLC-MS/MS (Sciex, Q-Trap 4500). […]
(§5) The inhibitory effect of the compound on each P450 enzyme in human liver microsomes was calculated as the percentage of reduced metabolite formation compared with the non-inhibitory control (i.e., blank DMSO). The IC50 value for each P450 enzyme in human liver microsomes was calculated using the logarithm of the remaining activity and the inhibitor concentration using Graphpad Prism software. […]

CYP2C9 = biological target: T2, CYP2C9 (Homo sapiens, UniProt P11712); assay: CYP450 enzyme inhibition in human liver microsomes, CYP2C9; settings: substrate Diclofenac Sodium, read-out: Inhibitory activity IC50 (μM) CYP2C9
T2 construct: 0.05 mg/mL liver microsome (BioIVT, IHG) phosphate buffer solution; tissue BioIVT IHG; host or cells: human liver microsomes
Procedure: as §1, §2, §3, §4, §5

[1] = Liver microsome metabolic stability, rat; settings: rat liver microsomes, 45 min incubation
Procedure: Purpose: This experiment investigates the metabolic stability of the compound in liver microsomes of different species such as humans, mice and rats, and the residual content of the test compound after incubation with liver microsomes of different species such as humans, mice and rats.
Preparation of 500 μM solution of target compound and positive control: 5 μL of each 10 mM stock solution was taken, added to 95 μL acetonitrile, and mixed for 30 s;
Preparation of 6 mM NADPH solution: 100 mM Stock aliquot liquid was diluted with Mg-Mg —K-Buffer.
2.1.1 Liver microsome solution: 18.75 μL of 20 mg/mL HLM, RLM, MLM, DLM, MOLM (final concentration: 0.5 mg/ml) were taken and placed them in each well of a 96-well plate;
2.1.2 1.5 μL of 500 μM solution of each compound was added respectively;
2.1.3 479.8 μL of phosphate buffer was taken, then added to each compound well, and mixed at 1000 rpm in an oscillating mixer for 10 s.
30 μL of the above samples were taken and aliquoted to a new 96-well plates respectively (including NADPH group, n=2, and no NADPH group at 0 and 45 min, n=1), marked as 0, 5, 15, 30 and 45 min; […]
The slope was calculated based on the LN value of the compound concentration percentage and time as the coordinate axis, and the residual content of the compound after incubation with liver microsomes was calculated based on the slope and formula. […]

T1 sequence (P08684 whole entry): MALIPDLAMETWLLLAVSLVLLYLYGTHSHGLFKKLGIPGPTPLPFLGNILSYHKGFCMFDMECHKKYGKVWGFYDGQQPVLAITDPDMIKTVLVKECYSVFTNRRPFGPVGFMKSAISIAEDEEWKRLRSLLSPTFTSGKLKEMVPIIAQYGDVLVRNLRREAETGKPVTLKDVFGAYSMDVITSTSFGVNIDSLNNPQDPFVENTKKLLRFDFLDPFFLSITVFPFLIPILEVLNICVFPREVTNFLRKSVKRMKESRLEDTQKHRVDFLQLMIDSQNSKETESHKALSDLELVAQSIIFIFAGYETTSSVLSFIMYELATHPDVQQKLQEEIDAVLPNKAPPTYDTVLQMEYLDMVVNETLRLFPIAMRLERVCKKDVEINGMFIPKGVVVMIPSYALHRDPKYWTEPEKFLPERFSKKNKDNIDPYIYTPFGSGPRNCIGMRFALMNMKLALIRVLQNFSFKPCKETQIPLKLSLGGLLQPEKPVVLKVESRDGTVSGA
T2 sequence (P11712 whole entry): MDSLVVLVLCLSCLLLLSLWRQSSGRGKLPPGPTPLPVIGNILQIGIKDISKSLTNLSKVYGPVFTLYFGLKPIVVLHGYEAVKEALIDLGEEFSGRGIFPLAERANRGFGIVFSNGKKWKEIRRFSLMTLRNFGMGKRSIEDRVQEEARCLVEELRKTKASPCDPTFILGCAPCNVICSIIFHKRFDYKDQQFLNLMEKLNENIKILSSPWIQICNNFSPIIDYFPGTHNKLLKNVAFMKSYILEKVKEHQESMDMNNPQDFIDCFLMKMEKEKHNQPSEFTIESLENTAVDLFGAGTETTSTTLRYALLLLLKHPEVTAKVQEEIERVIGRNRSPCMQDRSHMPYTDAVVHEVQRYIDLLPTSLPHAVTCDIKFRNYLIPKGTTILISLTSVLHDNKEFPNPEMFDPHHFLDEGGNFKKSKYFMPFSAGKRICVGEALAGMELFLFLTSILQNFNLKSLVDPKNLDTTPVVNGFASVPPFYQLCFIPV

With `CC(=O)N1CCOC[C@H]1CNc1nc2nc(-c3c(C)cc(C(F)(F)F)cc3O)ccc2o1` [Compound 111] the IC50 (CYP3A4; substrate Midazolam, read-out: Inhibitory activity IC50 (μM) CYP3A4-M) was 28.7 µM, the IC50 (CYP3A4; substrate Testosterone, read-out: Inhibitory activity IC50 (μM) CYP3A4-T) was over 30 µM and the IC50 (CYP2C9) was over 30 µM. The “LMS (r)(% rem, 45 min)” value [1] was 82.45 % rem.
